Laboratory results: PubChem BioAssay (NCI)
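Five compound concentrations were applied to cells in 96-well plates for 48 hours; endpoints were derived by simple linear interpolation of the resulting dose-response curve. Here, GI50 denotes the concentration required for 50% inhibition of growth. TGI: concentration producing complete growth inhibition.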

How the values were obtained:
Test in all cases: DTP human tumour cell line panel, 48 h
HCC-2998 colon = system: HCC-2998 colon
786-0 renal = system: 786-0 renal
SK-MEL-2 melanoma = system: SK-MEL-2 melanoma
SR leukemia = system: SR leukemia
MCF7 breast = system: MCF7 breast
UACC-257 melanoma = system: UACC-257 melanoma
SK-OV-3 ovarian = system: SK-OV-3 ovarian
UACC-62 melanoma = system: UACC-62 melanoma
MALME-3M melanoma = system: MALME-3M melanoma

Compound	TGI (HCC-2998 colon)	TGI (786-0 renal)	TGI (SK-MEL-2 melanoma)	TGI (SR leukemia)	TGI (MCF7 breast)	TGI (UACC-257 melanoma)	TGI (SK-OV-3 ovarian)	TGI (UACC-62 melanoma)	TGI (MALME-3M melanoma)	GI50 (HCC-2998 colon)	GI50 (SK-MEL-2 melanoma)	GI50 (SR leukemia)	GI50 (MCF7 breast)	GI50 (UACC-257 melanoma)	GI50 (SK-OV-3 ovarian)	GI50 (UACC-62 melanoma)	GI50 (MALME-3M melanoma)
O=C1C(C(O)(C(F)(F)Cl)C(F)(F)Cl)CCC1C(O)(C(F)(F)Cl)C(F)(F)Cl (centres undefined)	> 10 µM	> 10 µM	5.72 µM	> 10 µM	> 10 µM	> 10 µM	> 10 µM	> 10 µM	> 10 µM								
COC(=O)C1Cc2c([nH]c3ccccc23)C(c2cccc(O)c2)N1 (centres undefined)	48.3 µM	> 100 µM	83.3 µM	76.1 µM	> 100 µM	> 100 µM	> 100 µM	> 100 µM									
COC(=O)C1Cc2ccc(C)cc2C1=O (centres undefined)	> 100 µM	> 100 µM	> 100 µM	> 100 µM	> 100 µM	> 100 µM	> 100 µM	> 100 µM	> 100 µM								
S=C(NNC1=NCCCN1)Nc1ccccc1	> 100 µM	> 100 µM	> 100 µM	> 100 µM	> 100 µM	> 100 µM	> 100 µM	> 100 µM	> 100 µM								
CC12CC3CC/C(=N\O)C(C1)C3(N1CCOCC1)C/C2=N/O (centres undefined)	> 100 µM	> 100 µM	> 100 µM	> 100 µM	> 100 µM	> 100 µM	> 100 µM	> 100 µM	> 100 µM								
CC(=O)Oc1ccc(N2C(=O)C3c4[nH]c5ccccc5c4C4CCC(C(C)(C)C)CC4C3C2=O)cc1 (centres undefined)	5.14 µM	4.31 µM	17.8 µM		13.7 µM	24 µM	24 µM	20.7 µM	19.4 µM								
N#C/C(=C1\N=C(c2ccccc2O)Oc2ccccc21)c1ccc([N+](=O)[O-])cc1	> 100 µM	> 100 µM	> 100 µM		> 100 µM	> 100 µM	> 100 µM	> 100 µM	> 100 µM								
CC(O)c1c2c(cc3c1CC1(C3)Cc3cc4c(c(C(C)O)c3C1)CCC4)CCC2 (centres undefined)	40.2 µM	28.9 µM	43.3 µM	29.8 µM	59.5 µM	31.7 µM	60.8 µM	40.7 µM	34.5 µM								
Cc1cc(C)c(S(=O)(=O)N[C@@H](/C=C(\Br)CO)C(C)C)c(C)c1	53.7 µM	> 100 µM	33.7 µM	68.8 µM	59.4 µM	54.6 µM	> 100 µM	28.2 µM	61.6 µM								
COC(=O)c1ccc2c(c1)CC1(C2)Cc2cc3c(c(C(=O)OC)c2C1)CCCC3 (centres undefined)	> 100 µM	> 100 µM		> 100 µM	> 100 µM	> 100 µM	> 100 µM	> 100 µM	> 100 µM								
O=C(c1ccccc1)c1nn(-c2ccc(Cl)cc2)c2nc3nc(-c4ccccc4)cc(=O)n3nc12	66.5 µM		70.4 µM	57.6 µM	> 100 µM	> 100 µM	> 100 µM	41.9 µM	65.1 µM	29.7 µM	26.3 µM	22.9 µM	40.9 µM	70.7 µM	> 100 µM	19.8 µM	3.08 µM
CCOC(=O)c1c(O)[nH]c(=O)c(CC)c1C	> 100 µM	> 100 µM	> 100 µM		> 100 µM	> 100 µM	> 100 µM	> 100 µM	> 100 µM								
Cc1ccc(-c2sc(-c3ccc(C)cc3)c3c2C2CCC3C2)cc1		> 50 µM	> 50 µM	> 50 µM		> 50 µM	> 50 µM	> 50 µM	> 50 µM								
COc1cc([C@@H]2c3cc4c(cc3[C@H](OC3OC5COC(C(C)C)OC5C(O)C3O)C3COC(=O)[C@@H]32)OCO4)cc(OC)c1O (some centres undefined)		22.1 µM	31.5 µM	> 100 µM	16 µM	22.3 µM	39.1 µM	24.7 µM	36 µM								
Cc1ccc(/C=C2\CN(C)CC3C(c4ccc(C)cc4)=C(C#N)C(=O)NC23)cc1 (centres undefined)	> 50 µM	> 50 µM	> 50 µM		> 50 µM	> 50 µM	> 50 µM	> 50 µM	> 50 µM								
O=c1[nH]c2cc(C(F)(F)F)ccc2nc1Cc1ccccc1	> 100 µM	> 100 µM	> 100 µM	> 100 µM	> 100 µM	> 100 µM	87.4 µM	> 100 µM									
COc1ncnc2c1cnn2Cc1cn(COCC(O)CO)nn1 (centres undefined)	> 100 µM	> 100 µM	> 100 µM	> 100 µM	> 100 µM	> 100 µM	> 100 µM	> 100 µM									
Clc1ccccc1/C=C/c1nsc(/C=C/c2ccccc2Cl)n1		39.1 µM	> 100 µM	55.6 µM	> 100 µM	64.1 µM	> 100 µM		> 100 µM								
CC1=C2C(=O)O[C@@H](c3ccoc3)[C@]2(C)CCC1=O	> 100 µM	> 100 µM	> 100 µM	> 100 µM	> 100 µM	> 100 µM	> 100 µM	> 100 µM									
Cc1nc(-c2ccccc2)c(C)n2c1nc1ccccc12		> 100 µM	45.9 µM	56.2 µM	86.1 µM	> 100 µM	46.3 µM	41 µM	> 100 µM								
CCOc1cc(/C=N\N(C)C)cc(/C=N\N(C)C)c1O	> 100 µM	> 100 µM	77 µM	> 100 µM		> 100 µM	> 100 µM	> 100 µM	> 100 µM								
COc1cc(C2CC(c3cccc(Nc4ccncc4)c3)=NN2c2cc(Cl)cc(Cl)c2)cc(OC)c1OC (centres undefined)	2.98 µM		4.13 µM	3.72 µM			3.89 µM	3.18 µM		1.56 µM	2.05 µM	1.64 µM			1.86 µM	1.69 µM	
COc1cc2cc(Oc3ccc(NC(=O)Nc4ccc(F)c(C(F)(F)F)c4)cc3)c(C)nc2cc1OCCN1CCCCC1			3.45 µM				3.42 µM	3.19 µM			1.84 µM				1.87 µM	1.71 µM	
Cc1ccc(S(=O)(=O)NC(=O)NC(CO)C(=O)O)cc1 (centres undefined)		> 100 µM	> 100 µM	> 100 µM	> 100 µM	> 100 µM	> 100 µM	> 100 µM	> 100 µM								
